Key:
Assay type in all cases: in vivo
weeds = test: Test on herbicidal effects by soil treatment: summary over the weeds; settings: summary in words of Table 2
Protocol: (§1) Plastic cases having a size of 30 cm (length), 30 cm (width) and 10 cm (depth) were charged with sterilized upland soil. In each plastic case, seeds of velvetleaf (Abutilon theophrasti), common lambsquarters (Chenopodium album), redroot pigweed (Amaranthus viridis) and common ragweed (Ambrosia artemisiaefolia) were seeded, and covered with soil of 0.5 cm thickness. On the day of seeding, wettable powder appropriately formulated according to the above Formulation Examples was diluted with water and then applied with a small type sprayer at a spray volume of 10 liter/are. Four weeks after the application, the fresh weight of aerial parts of each weed was determined and then compared with those of untreated weed.

[1] = system: common ragweed (Ambrosia artemisiaefolia); test: Test on herbicidal effects by soil treatment: common ragweed; settings: four weeks after application
Protocol: as §1

[2] = system: redroot pigweed (Amaranthus viridis); test: Test on herbicidal effects by soil treatment: redroot pigweed; settings: four weeks after application
Protocol: as §1

maize = test: Test on phytotoxicity to maize sown at a shallow sowing depth (soil treatment, pot test); settings: for Fresh weight ratio with respect to untreated plants: maize sown at 1 cm depth, 17 days after application; for phytotoxicities to maize sown at a shallow sowing depth caused by Compound (A1), (A2), (A3) or (A4): effect of the safener: summary in words of Table 1
Protocol: Cylindrical pots having an inner diameter of about 11 cm and a depth of 10 cm were charged with sterilized upland soil. In each pot, three seeds of maize were separately seeded at a sowing depth of 1 cm. On the day of seeding, wettable powder appropriately formulated according to the above Formulation Examples was diluted with water and then applied with a small type sprayer at a spray volume of 10 liter/are. Seventeen days after the application, the fresh weight of aerial parts of each plant was determined and then compared with those of untreated plants.

[3] = system: common lambsquarters (Chenopodium album); test: Test on herbicidal effects by soil treatment: common lambsquarters; settings: four weeks after application
Protocol: as §1

[4] = system: velvetleaf (Abutilon theophrasti); test: Test on herbicidal effects by soil treatment: velvetleaf; settings: four weeks after application
Protocol: as §1

Row | SMILES | herbicidal activities in the presence of Compound (B), (C), (D) or (E) (weeds) | Fresh weight ratio with respect to untreated weeds, A.ar ([1]; 5 g/ha) [%] | Fresh weight ratio with respect to untreated weeds, A.ar ([1]; 10 g/ha) [%] | Fresh weight ratio with respect to untreated weeds, A.vi ([2]; 5 g/ha) [%] | Fresh weight ratio with respect to untreated weeds, A.vi ([2]; 10 g/ha) [%] | Fresh weight ratio with respect to untreated plants (maize; 40 g/ha) [%] | Fresh weight ratio with respect to untreated plants (maize; 80 g/ha) [%] | Fresh weight ratio with respect to untreated weeds, C.al ([3]; 5 g/ha) [%] | Fresh weight ratio with respect to untreated weeds, C.al ([3]; 10 g/ha) [%] | Fresh weight ratio with respect to untreated weeds, A.th ([4]; 5 g/ha) [%] | Fresh weight ratio with respect to untreated weeds, A.th ([4]; 10 g/ha) [%] | phytotoxicities to maize sown at a shallow sowing depth caused by Compound (A1), (A2), (A3) or (A4): effect of the safener (maize)
1 | CCS(=O)(=O)Nc1cc(-n2c(=O)cc(C(F)(F)F)n(C)c2=O)c(F)cc1Cl [Compound (A1)] | not decreased | 31 | 7 | 5 | 0 | 70 | 55 | 13 | 0 | 26 | 2 | –
2 | Cn1c(C(F)(F)F)cc(=O)n(-c2cc(NS(C)(=O)=O)c(C#N)cc2F)c1=O [Compound (A2)] | not decreased | 40 | 10 | 9 | 0 | 90 | 76 | 18 | 0 | 32 | 4 | –
3 | CCS(=O)(=O)N(C(=O)C(C)(C)C)c1cc(-n2c(=O)cc(C(F)(F)F)n(C)c2=O)c(F)cc1C#N [Compound (A3)] | not decreased | 37 | 11 | 6 | 0 | 84 | 60 | 15 | 0 | 24 | 1 | –
4 | CCS(=O)(=O)N(C(=O)c1ccc(OC)cc1)c1cc(-n2c(=O)cc(C(F)(F)F)n(C)c2=O)c(F)cc1Cl [Compound (A4)] | not decreased | 40 | 14 | 9 | 0 | 73 | 57 | 17 | 0 | 27 | 5 | –
5 | CC1(C)OC(c2ccco2)CN1C(=O)C(Cl)Cl (stereo not shown) [Compound (B)] | – | 100 | 100 | 100 | 100 | 100 | 100 | 100 | 100 | 100 | 100 | remarkably reduced
6 | CC1(C)CN2C(=O)CCC2(C)N(C(=O)C(Cl)Cl)C1 (stereo not shown) [Compound (C)] | – | 100 | 100 | 100 | 100 | 100 | 100 | 100 | 100 | 100 | 100 | remarkably reduced
7 | O=C(C(Cl)Cl)N1CCOC12CCCCC2 [Compound (D)] | – | 100 | 100 | 100 | 100 | 100 | 100 | 100 | 100 | 100 | 100 | remarkably reduced
8 | CC1COc2ccccc2N1C(=O)C(Cl)Cl (stereo not shown) [Compound (E)] | – | 100 | 100 | 100 | 100 | 100 | 100 | 100 | 100 | 100 | 100 | remarkably reduced

From patent US6562756B1, “Herbicidal compositions” (Nissan Chemical Industries, Ltd., priority 1999, dated 2003)
